Laboratory results published in ChEMBL document CHEMBL1123796, “New antitumor agents containing the anthracene nucleus” (1987).

Tests used:
Assay type in all cases: functional
[1] = tested on: RPMI-8226; test: Effect on protein synthesis was determined by incorporation of radioligand into 8226 human myeloma cells at a concentration of 10 ug/mL (*: >1 log cell kill)
[2] = tested on: RPMI-8226; test: Effect on RNA synthesis was determined by incorporation of radioligand into 8226 human myeloma cells at a concentration of 1 ug/mL. (*: >1 log cell kill)
[3] = tested on: RPMI-8226; test: Effect on RNA synthesis was determined by incorporation of radioligand into 8226 human myeloma cells at a concentration of 0.3 ug/mL (*: >50% cell kill)
[4] = tested on: L1210; test: Antileukemic activity against L-1210 cells in mice at a dose of 37.5 mg/kg administered intraperitoneally after 5 day treatment; details: Mus musculus, L1210, ip, 120 h, route intraperitoneal
[5] = tested on: Mus musculus; test: Tested for skin toxicity in BALB/c mice at a significant dose of 1.25 mg/kg administered intraintradermally and involved concentric circular areas of induration.
[6] = tested on: L1210; test: Effect on protein synthesis was determined by incorporation of radioligand into L1210 murine leukemia at a concentration of 0.5 ug/mL. (*: >1 log cell kill); details: Mus musculus
[7] = tested on: Mus musculus; test: Tested for skin toxicity in BALB/c mice administered intraintradermally and involved concentric circular areas of ulceration
[8] = tested on: L1210; test: Antileukemic activity against L-1210 cells in mice at a dose of 60 mg/kg administered intraperitoneally after 1 day treatment; details: Mus musculus, L1210, ip, 24 h, route intraperitoneal
[9] = tested on: Mus musculus; test: Tested for high-dose toxicity in mice at a significant dose of 90 mg/kg administered intraperitoneally after 1 days of treatment; details: route intraperitoneal
[10] = tested on: Mus musculus; test: Tested for percent average weekly weight change in mice at a significant dose of 70 mg/kg administered intraperitoneally after 5 days of treatment; details: route intraperitoneal
[11] = tested on: L1210; test: Antileukemic activity against L-1210 cells in mice at a dose of 70 mg/kg administered intraperitoneally after 5 day treatment; details: Mus musculus, L1210, ip, 120 h, route intraperitoneal
[12] = tested on: RPMI-8226; test: Effect on RNA synthesis was determined by incorporation of radioligand into 8226 human myeloma cells at a concentration of 0.5 ug/mL. (*: >1 log cell kill)
[13] = tested on: RPMI-8226; test: Effect on RNA synthesis was determined by incorporation of radioligand into 8226 human myeloma cells at a concentration of 0.01 ug/mL
[14] = tested on: RPMI-8226; test: Effect on DNA synthesis was determined by incorporation of radioligand into 8226 human myeloma cells at a concentration of 0.3 ug/mL (*: >50% cell kill)
[15] = tested on: L1210; test: Effect on protein synthesis was determined by incorporation of radioligand into L1210 murine leukemia at a concentration of 1 ug/mL. (*: >1 log cell kill); details: Mus musculus
[16] = tested on: Mus musculus; test: Tested for skin toxicity in BALB/c mice at a significant dose of 0.25 mg/kg administered intraintradermally and involved concentric circular areas of ulceration
[17] = tested on: P388; test: Antileukemic activity against P-388 in mice at a dose of 100 mg/kg administered intraperitoneally after 1 day treatment; details: Mus musculus, P388, ip, 24 h, route intraperitoneal
[18] = tested on: L1210; test: Effect on DNA synthesis was determined by incorporation of radioligand into L1210 murine leukemia at a concentration of 0.3 ug/mL (*: >50% cell kill); details: Mus musculus
[19] = tested on: Mus musculus; test: Tested for high-dose toxicity in mice at a significant dose of 100 mg/kg administered intraperitoneally after 5 days of treatment; details: route intraperitoneal
[20] = tested on: L1210; test: Antileukemic activity against L-1210 cells in mice at a dose of 80 mg/kg administered intraperitoneally after 5 day treatment; details: Mus musculus, L1210, ip, 120 h, route intraperitoneal
[21] = tested on: Mus musculus; test: Tested for skin toxicity in BALB/c mice at a significant dose of 2.5 mg/kg administered intraintradermally and involved concentric circular areas of induration.
[22] = tested on: P388; test: Antileukemic activity against P-388 in mice at a dose of 30 mg/kg administered intraperitoneally after 5 day treatment; details: Mus musculus, P388, ip, 120 h, route intraperitoneal
[23] = tested on: Mus musculus; test: Tested for high-dose toxicity in mice at a significant dose of 70 mg/kg administered intraperitoneally after 5 days of treatment; details: route intraperitoneal
[24] = tested on: Mus musculus; test: Tested for percent average weekly weight change in mice at a significant dose of 90 mg/kg administered intraperitoneally after 1 days of treatment; details: route intraperitoneal
[25] = tested on: Mus musculus; test: Tested for skin toxicity in BALB/c mice at a significant dose of 0.75 mg/kg administered intraintradermally and involved concentric circular areas of erythema
[26] = tested on: RPMI-8226; test: Effect on RNA synthesis was determined by incorporation of radioligand into 8226 human myeloma cells at a concentration of 10 ug/mL (*: >1 log cell kill)
[27] = tested on: Mus musculus; test: Tested for high-dose toxicity in mice at a significant dose of 45 mg/kg administered intraperitoneally after 5 days of treatment; details: route intraperitoneal
[28] = Tested in vitro for inhibitory activity of human tumor cell growth against HEC 1A endometrial tumor, by using clonogenic assays.; details: read-out: ID50 (the source's name)
[29] = tested on: RPMI-8226; test: Effect on protein synthesis was determined by incorporation of radioligand into 8226 human myeloma cells at a concentration of 0.5 ug/mL. (*: >1 log cell kill)
[30] = tested on: Mus musculus; test: Tested for percent average weekly weight change in mice at a significant dose of 80 mg/kg administered intraperitoneally after 5 days of treatment; details: route intraperitoneal
[31] = tested on: L1210; test: Antileukemic activity against L-1210 cells in mice at a dose of 90 mg/kg administered intraperitoneally after 1 day treatment; details: Mus musculus, L1210, ip, 24 h, route intraperitoneal
[32] = tested on: L1210; test: Effect on DNA synthesis was determined by incorporation of radioligand into L1210 murine leukemia at a concentration of 1 ug/mL. (*: >1 log cell kill); details: Mus musculus
[33] = tested on: Mus musculus; test: Tested for percent average weekly weight change in mice at a significant dose of 80 mg/kg administered intraperitoneally; details: route intraperitoneal
[34] = tested on: L1210; test: Effect on protein synthesis was determined by incorporation of radioligand into L1210 murine leukemia at a concentration of 0.01 ug/mL; details: Mus musculus
[35] = tested on: RPMI-8226; test: Effect on DNA synthesis was determined by incorporation of radioligand into 8226 human myeloma cells at a concentration of 0.01 ug/mL
[36] = tested on: P388; test: Antileukemic activity against P-388 in mice at a dose of 80 mg/kg administered intraperitoneally after 5 day treatment; details: Mus musculus, P388, ip, 120 h, route intraperitoneal
[37] = tested on: P388; test: Antileukemic activity against P-388 in mice at a dose of 70 mg/kg administered intraperitoneally after 1 day treatment; details: Mus musculus, P388, ip, 24 h, route intraperitoneal
[38] = tested on: Mus musculus; test: Tested for percent average weekly weight change in mice at a significant dose of 37.5 mg/kg administered intraperitoneally after 5 days of treatment; details: route intraperitoneal
[39] = tested on: Mus musculus; test: Tested for percent average weekly weight change in mice at a significant dose of 45 mg/kg administered intraperitoneally after 5 days of treatment; details: route intraperitoneal
[40] = tested on: L1210; test: Effect on protein synthesis was determined by incorporation of radioligand into L1210 murine leukemia at a concentration of 10 ug/mL (*: >1 log cell kill); details: Mus musculus
[41] = tested on: RPMI-8226; test: Effect on DNA synthesis was determined by incorporation of radioligand into 8226 human myeloma cells at a concentration of 1 ug/mL. (*: >1 log cell kill)

## CN(C)CCNCc1c2ccccc2c(CNCCN(C)C)c2ccccc12
[1]
  inhibition at 10 µg/mL: 17.6%
[2]
  inhibition at 1 µg/mL: 70.4%
[3]
  inhibition at 0.3 µg/mL: 0%
[4]
  ILS at 37.5 mg/kg: 11%
[5]
  Extent of skin lesions: 4.3 cm**2
[6]
  inhibition at 0.5 µg/mL: 21.8%
[7]
  Extent of skin lesions: 1.9 cm**2
[8]
  ILS at 60 mg/kg: 17%
[9]
  Lethality: 20%
  Median day of death: 10
[10]
  Average weekly weight change: -7%
[11]
  ILS at 70 mg/kg: 30%
[12]
  inhibition at 0.5 µg/mL: 7.3%
[13]
  inhibition at 0.01 µg/mL: 0%
[14]
  inhibition at 0.3 µg/mL: 8.4%
[15]
  inhibition at 1 µg/mL: 31.2%
[16]
  Extent of skin lesions: 0.2 cm**2
[17]
  ILS at 100 mg/kg: -33%
[18]
  inhibition at 0.3 µg/mL: 0%
[19]
  Lethality: 80%
  Median day of death: 8
[20]
  ILS at 80 mg/kg: 15%
[21]
  Extent of skin lesions: 6.1 cm**2
[22]
  ILS at 30 mg/kg: 0%
[23]
  Lethality: 10%
  Median day of death: 0
[24]
  Average weekly weight change: -5%
[25]
  Extent of skin lesions: 1.3 cm**2
[26]
  inhibition at 10 µg/mL: 91.4%
[27]
  Lethality: 30%
  Median day of death: 2
[28]
  IC50: 360 nM
[29]
  inhibition at 0.5 µg/mL: 63.5%
[30]
  Average weekly weight change: -10%
[31]
  ILS at 90 mg/kg: 3%
[32]
  inhibition at 1 µg/mL: 48.7%
[33]
  Lethality: -3%
[34]
  inhibition at 0.01 µg/mL: 0%
[35]
  inhibition at 0.01 µg/mL: 0%
[36]
  ILS at 80 mg/kg: 0%
[37]
  ILS at 70 mg/kg: 27%
[38]
  Average weekly weight change: -7%
[39]
  Average weekly weight change: -12%
[40]
  inhibition at 10 µg/mL: 87.3%
[41]
  inhibition at 1 µg/mL: 21.1%
